Test results published in patent publication US8815934B2, “2-Phenyl-1-[4-(2-Aminoethoxy)-Benzyl]-Indole and estrogen formulations” (Wyeth LLC, priority 1998, dated 2014).

Assays:
estrogen receptor [1] = target: T1, estrogen receptor (Homo sapiens (Human), UniProt P03372); assay: 2×VIT ERE infection luciferase assay; type: cell-based; settings: for Infection Luciferase Activity, 1 uM + 17β estradiol: 1 uM compound + 1 nM 17β-estradiol (estrogen antagonism); for Infection Luciferase Activity, 1 uM: 1 uM compound alone, percentage of activity as compared to 17β-estradiol
Experimental: Chinese Hamster Ovary cells (CHO) which had been stably transfected with the human estrogen receptor were maintained in DMEM+10% fetal bovine serum (FBS). 48 h prior to treatment the growth medium was replaced with DMEM lacking phenol red+10% dextran coated charcoal stripped FBS (treatment medium). Cells were plated at a density of 5000 cells/well in 96-well plates containing 200 μL of medium/well.
Reporter DNA (Promega plasmid pGL2 containing two tandem copies of the vitellogenin ERE in front of the minimal thymidine kinase promoter driving the luciferase gene) was combined with the B-galactosidase expression plasmid pCH110 (Pharmacia) and carrier DNA (pTZ18U) in the following ratio:
20 uL of this mixture was added to each well of cells and remained on the cells for 16 h. […] Each treatment condition was performed on 8 wells (n=8) which were incubated for 24 h prior to the luciferase assay.
After removing the PBS, 25 uL of Promega lysis buffer was added to each well and allowed to stand at room temperature for 15 min, followed by 15 min at −80° C. and 15 min at 37° C. 20 uL of lysate was transferred to an opaque 96 well plate for luciferase activity evaluation and the remaining lysate (5 uL) was used for the B-galactosidase activity evaluation (normalize transfection). The luciferan substrate (Promega) was added in 100 uL aliquots to each well automatically by the luminometer and the light produced (relative light units) was read 10 seconds after addition.
To the remaining 5 uL of lysate 45 uL of PBS was added. Then 50 uL of Promega B-galactosidase 2× assay buffer was added, mixed well and incubated at 37° C. for 1 hour. A plate containing a standard curve (0.1 to 1.5 milliunits in triplicate) was set up for each experimental run. The plates were analyzed on a Molecular Devices spectrophotometric plate reader at 410 nm. The optical densities for the unknown were converted to milliunits of activity by mathematical extrapolation from the standard curve.
The luciferase data was generated as relative light units (RLUs) accumulated during a 10 second measurement and automatically transferred to a JMP (SAS Inc) file where background RLUs were subtracted. The B-galactosidase values were automatically imported into the file and these values were divided into the RLUs to normalize the data. The mean and standard deviations were determined from a n=8 for each treatment. […] These techniques are described by Tzukerman, M. T., Esty, A., Santiso-Mere, D., Danielian, P., Parker, M. G., Stein, R. B., Pike, J. W. and McDonnel, D. P. (1994). Human estrogen receptor transactivational capacity was determined by both cellular and promoter context and mediated by two functionally distinct intramolecular regions (see Molecular Endocrinology, 8:21-30).

[2] = system: Immature Sprague-Dawley rats; assay: Rat uterotrophic/antiuterotrophic bioassay; type: in vivo; settings: immature female rats, daily ip; for Uterine wt mg 100 uG cmpd + 1uG 17β-estradiol: 100 uG compound + 1 uG 17β-estradiol; for Uterine wt mg 100 uG cmpd: 100 uG compound, wet weight
Experimental: The estrogenic and antiestrogenic properties of the compounds were determined in an immature rat uterotrophic assay (4 day) that (as described previously by L. J. Black and R. L. Goode, Life Sciences, 26, 1453 (1980)). Immature Sprague-Dawley rats (female, 18 days old) were tested in groups of six. […] On day 4 the animals were sacrificed by CO2 asphyxiation and their uteri were removed and stripped of excess lipid, any fluid removed and the wet weight determined. A small section of one horn was submitted for histology and the remainder used to isolate total RNA in order to evaluate complement component 3 gene expression.

estrogen receptor [3] = target: T1, estrogen receptor; assay: In vitro estrogen receptor binding assay; settings: competition with [3H]17β-estradiol, cytosol of CHO cells overexpressing the estrogen receptor; for IC50: read-out: Receptor Binding IC50's
Experimental: CHO cells overexpressing the estrogen receptor were grown in 150 mm^2 dishes in DMEM+10% dextran coated charcoal, stripped fetal bovine serum. The plates were washed twice with PBS and once with 10 mM Tris-HCl, pH 7.4, 1 mM EDTA. Cells were harvested by scraping the surface and then the cell suspension was placed on ice. Cells were disrupted with a hand-held motorized tissue grinder using two, 10-second bursts. […] The cytosol was then frozen and stored at −80° C. Protein concentration of the cytosol was estimated using the BCA assay with reference standard protein.
100 uG/100 uL of the receptor preparation was aliquoted per well. […] The plate was incubated at room temperature for 2.5 h. […] 200 uL of the supernatant solution was then removed for scintillation counting. Samples were counted to 2% or 10 minutes, whichever occurs first.
Counts per minute (CPM) of radioactivity were automatically converted to disintegrated per minute (DPM) by the Beckman LS 7500 Scintillation Counter using a set of quenched standards to generate a H No. for each sample.
For the generation of IC50 curves, % binding is plotted vs compound. […] For a description of these methods, see Hulme, E. C., ed. […] Receptor-Ligand Interactions: A Practical Approach. IRL Press, New York. (see especially chapter 8).

Ishikawa cells = assay: Ishikawa cell alkaline phosphatase assay; type: cell-based, human; settings: for % Activation (Ishikawa alkaline phosphatase) with 1 nM 17β-estradiol: compound + 1 nM 17β-estradiol (antiestrogen test); for % Activation (Ishikawa alkaline phosphatase): compound alone, percent of response related to 1 nM 17β-estradiol; for ED50 of estrogenic activity by the alkaline phosphatase method: Ishikawa cells, 48 h treatment, reference standards
Experimental: Cells were treated for 48 h prior to assay. […] Sample population for at each dose was n=8. […] Plates are placed at -80° C. for a minimum of […]. Plates are thawed at 37° C. followed by the addition of 150 μL of 0.1 M Tris-HCl, pH 9.8, containing 4 mM para-nitrophenylphosphate (pNPP) to each well (final concentration, 3 mM pNPP). Absorbance and slope calculations were made using the […] Application program (Bio-Tek Instruments, Inc., Winooski, Vt.). […] The four listed in the following were used as reference standards: A description of these methods is described by Holinka, […]., Kuramoto, H. and Gurpide, E. (1986) Effects of steroid hormones and antisteroids on alkaline phosphatase activity in human endometrial cancer cells (Ishikawa Line). Cancer Research, 46:2771-2774, and by […]. and […] simple and sensitive microtiter plate estrogen bioassay based on stimulation alkaline phosphatase in Ishikawa cells; […] Endocrinology, 6:2757-2762.

T1 sequence (P03372 whole entry): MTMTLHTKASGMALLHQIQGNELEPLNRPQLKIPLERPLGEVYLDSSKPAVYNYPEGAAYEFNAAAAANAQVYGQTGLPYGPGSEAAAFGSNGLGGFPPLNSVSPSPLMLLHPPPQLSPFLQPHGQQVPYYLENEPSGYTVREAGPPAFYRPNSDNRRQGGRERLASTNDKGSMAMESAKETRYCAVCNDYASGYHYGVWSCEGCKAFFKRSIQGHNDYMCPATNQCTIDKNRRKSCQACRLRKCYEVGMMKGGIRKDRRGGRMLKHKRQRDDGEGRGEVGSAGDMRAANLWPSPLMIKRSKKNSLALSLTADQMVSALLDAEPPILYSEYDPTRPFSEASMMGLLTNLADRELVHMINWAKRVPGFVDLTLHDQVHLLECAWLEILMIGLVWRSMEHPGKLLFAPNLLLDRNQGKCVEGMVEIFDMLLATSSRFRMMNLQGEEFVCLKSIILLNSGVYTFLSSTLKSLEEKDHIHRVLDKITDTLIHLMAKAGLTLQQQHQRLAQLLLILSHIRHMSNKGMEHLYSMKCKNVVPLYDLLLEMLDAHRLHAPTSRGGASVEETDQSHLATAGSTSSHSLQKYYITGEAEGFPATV

## N#Cc1c(-c2ccc(O)cc2)n(Cc2ccc(OCCN3CCCCC3)cc2)c2ccc(O)cc12 [No. 138, 5-Hydroxy-2-(4-Hydroxy-phenyl)-1-[4-(2-piperidin-1-yl-ethoxy)-benzyl]-1H-indole-3-carbonitrile]
Estrogen receptor [1]
  Infection Luciferase Activity, 1 uM + 17β estradiol: −1%
  Infection Luciferase Activity, 1 uM: −2%
[2]
  Uterine wt mg 100 uG cmpd + 1uG 17β-estradiol: 37.9 mg
  Uterine wt mg 100 uG cmpd: 28.4 mg

## Cc1c(-c2ccc(OC(C)C)cc2)n(Cc2ccc(OCCN3CCCCC3)cc2)c2ccc(O)cc12 [No. 120, 2-(4-Isopropoxy-phenyl)-3-methyl-1-[4-(2-1-yl-ethoxy)-benzyl]-1H-indol-5-ol]
Estrogen receptor [3]
  IC50: 100 nM
Estrogen receptor [1]
  Infection Luciferase Activity, 1 uM + 17β estradiol: 1%
  Infection Luciferase Activity, 1 uM: −1%

## Cc1c(-c2ccc(O)cc2)n(Cc2ccc(OCC[N+](C)(C)C)cc2)c2ccc(O)cc12.[I-] [No. 106, 2-(4-Hydroxy-phenyl)-3-methyl-1-[4-(2-dimethyl-1-yl-ethoxy)-benzyl]-1H-indol-5-ol methiodide]
Estrogen receptor [3]
  IC50: 100 nM
Estrogen receptor [1]
  Infection Luciferase Activity, 1 uM + 17β estradiol: 81%
  Infection Luciferase Activity, 1 uM: 10%

## Cc1c(-c2ccc(OC(=O)C(C)(C)C)cc2)n(Cc2ccc(OCCN3CCCCC3)cc2)c2ccc(OC(=O)C(C)(C)C)cc12 [No. 162, Di-pivalate ester of 2-(4-Hydroxy-phenyl)-3-methyl-1-[4-(2-piperidin-1-yl-ethoxy)-benzyl]-1H-indol-5-ol]
Estrogen receptor [3]
  Receptor Binding IC50's: Does not Bind
Estrogen receptor [1]
  Infection Luciferase Activity, 1 uM + 17β estradiol: −13%
  Infection Luciferase Activity, 1 uM: −14%

## Cc1c(-c2ccc(O)cc2)n(Cc2ccc(OCCN3CCCCCC3)cc2)c2ccc(O)cc12 [No. 98, 1-[4-(2-Azepan-1-yl-ethoxy)-benzyl]-2-(4-hydroxy-phenyl)-3-methyl-1H-indol-5-ol]
Ishikawa cells
  % Activation (Ishikawa alkaline phosphatase) with 1 nM 17β-estradiol: 1% activity (1% with 1 nM 17β-estradiol)
  % Activation (Ishikawa alkaline phosphatase): 1% activity (1% with 1 nM 17β-estradiol)
[2]
  Uterine wt mg 100 uG cmpd + 1uG 17β-estradiol: 27.9 mg
  Uterine wt mg 100 uG cmpd: 29.4 mg

## C[C@]12CC[C@@H]3c4ccc(O)cc4CC[C@H]3[C@@H]1CCC2=O [estrone]
Ishikawa cells
  ED50 of estrogenic activity by the alkaline phosphatase method: 0.36 nM

## Cc1c(-c2ccc(OC3CCCC3)cc2)n(Cc2ccc(OCCN3CCCCC3)cc2)c2ccc(O)cc12 [No. 122, 2-(4-Cyclopenyloxy-phenyl)-3-methyl-1-[4-(2-piperidin-1-yl-ethoxy)-benzyl]-1H-indol-5-ol]
Estrogen receptor [3]
  IC50: 80 nM
Estrogen receptor [1]
  Infection Luciferase Activity, 1 uM + 17β estradiol: 5%
  Infection Luciferase Activity, 1 uM: 1%
[2]
  Uterine wt mg 100 uG cmpd + 1uG 17β-estradiol: 38.7 mg
  Uterine wt mg 100 uG cmpd: 46.7 mg

## C[C@]12CC[C@@H]3c4ccc(O)cc4CC[C@H]3[C@@H]1CC[C@H]2O [17α-estradiol]
Ishikawa cells
  ED50 of estrogenic activity by the alkaline phosphatase method: 1.42 nM

## Cc1c(-c2ccc3c(c2)OCO3)n(Cc2ccc(OCCN3CCCCC3)cc2)c2ccc(O)cc12 [No. 119, 2-Benzo[1.3]dioxol-5-yl-3-methyl-1-[4-(2-piperidin-1-yl-ethoxy)-benzyl]-1H-indol-5-ol]
Estrogen receptor [3]
  IC50: 70 nM
Estrogen receptor [1]
  Infection Luciferase Activity, 1 uM + 17β estradiol: −1%
  Infection Luciferase Activity, 1 uM: −1%

## Cc1c(-c2ccccc2)n(Cc2ccc(OCCN3CCCCC3)cc2)c2ccccc12 [No. 85, 4-{3-Methyl-1-[4-(2-piperidin-1-yl-ethoxy)-benzyl]-1H-indole}]
Estrogen receptor [3]
  IC50: 450 nM
Estrogen receptor [1]
  Infection Luciferase Activity, 1 uM + 17β estradiol: 43%
  Infection Luciferase Activity, 1 uM: −2%
[2]
  Uterine wt mg 100 uG cmpd + 1uG 17β-estradiol: 92.4 mg
  Uterine wt mg 100 uG cmpd: 41.1 mg

## Cc1c(-c2ccc(C(F)(F)F)cc2)n(Cc2ccc(OCCN3CCCCC3)cc2)c2ccc(O)cc12 [No. 123, 3-Methyl-1-[4-(2-piperidin-1-yl-ethoxy)-benzyl]-2-(4-trifluoromethyl-phenyl)-1H-indol-5-ol]
Estrogen receptor [1]
  Infection Luciferase Activity, 1 uM + 17β estradiol: 1%
  Infection Luciferase Activity, 1 uM: −1%
[2]
  Uterine wt mg 100 uG cmpd + 1uG 17β-estradiol: 61.4 mg
  Uterine wt mg 100 uG cmpd: 39.2 mg

## O=C(c1ccc(OCCN2CCCCC2)cc1)c1c(-c2ccc(O)cc2)sc2cc(O)ccc12 [raloxifene]
Ishikawa cells
  % Activation (Ishikawa alkaline phosphatase) with 1 nM 17β-estradiol: 5% activity (5% with 1 nM 17β-estradiol)
  % Activation (Ishikawa alkaline phosphatase): 5% activity (5% with 1 nM 17β-estradiol)

## C[C@]12CC[C@@H]3c4ccc(O)cc4CC[C@H]3[C@@H]1C[C@@H](O)[C@@H]2O [estriol]
Ishikawa cells
  ED50 of estrogenic activity by the alkaline phosphatase method: 0.13 nM
